Read-outs that look alike come from different tables or passages of the source.
Experiments:
SHIV162P3 [1] = conditions: TZM-bl cells; cited from earlier work
Description: (§1) Similarly, HEC gel formulated cyanovirin was s ...

SHIV = conditions: cited from earlier work
Description: as §1

HIV-1 VI820 = assay: TZM-bl antiviral assay, VI820; type: cell-based; conditions: Human immunodeficiency virus 1; Table 2; A-X4R5; 10^-3 MOI, TZM-bl cells, 48 h; mean of at least 2 independent experiments, triplicates
Protocol: (§2) The IC50 of the various mCD4-conjugates were measured in TZM-bl cells (NIH AIDS Reagent Program, Germantown, MD 20874, US). This cell line expresses high densities of CD4, CCR5 and CXCR4. It contains a luciferase reporter gene under control of HIV LTR, which will be transcribed and translated into luciferase protein, if the cells get infected with HIV and start producing Tat. Briefly, 50 μl of TZM-bl cells (1 × 10^5 cells/mL) supplemented with 30 μg/mL DEAE dextran were incubated with a 50 μl of a 10-fold serial dilution of the compounds under investigation in 96-well flat bottom plates, prior to inoculation with 50 μl of various viruses (see Tables & and 2; 50, 100 or 200 TCID50 was used depending on the virus). As a positive control, 50 μl of compound-free medium was used and as a negative control, 100 μl of medium was added to 100 μl of TZM-bl cells. All conditions were done in triplicates. The plates were incubated for 48 hours (37 °C, 5% CO2). […] Next, the luciferase activity was measured using a TriStar LB941 luminometer (Berthold Technologies GmbH & Co. KG., Bad Wildbad, Germany) and expressed in relative light units (RLU) as a percentage of positive control wells. IC50 were calculated in GraphPad Prism 5.03 using non-linear regression (GraphPad Software, San Diego, CA, USA).

HIV-1 Bal = assay: TZM-bl antiviral assay, Bal; type: cell-based; conditions: Human immunodeficiency virus 1, BAL; Table 2; B-R5; 10^-3 MOI, TZM-bl cells, 48 h; mean of at least 2 independent experiments, triplicates
Protocol: as §2

HIV-1 IIIB = assay: TZM-bl antiviral assay, IIIB; type: cell-based; conditions: Human immunodeficiency virus 1, IIIB; Table 2; B-X4; 10^-3 MOI, TZM-bl cells, 48 h; mean of at least 2 independent experiments, triplicates
Protocol: as §2

HIV-1 MN = assay: TZM-bl antiviral assay, MN; type: cell-based; conditions: Human immunodeficiency virus 1; Table 2; B-X4; 10^-3 MOI, TZM-bl cells, 48 h; mean of at least 2 independent experiments, triplicates
Protocol: as §2

HIV-1 SF162 = assay: TZM-bl antiviral assay, SF162; type: cell-based; conditions: Human immunodeficiency virus 1; Table 2; B-R5; 10^-3 MOI, TZM-bl cells, 48 h; mean of at least 2 independent experiments, triplicates
Protocol: as §2

SHIV162P3 [2] = assay: TZM-bl antiviral assay, SHIV162P3; type: cell-based, SHIV; conditions: Table 2; B-R5; 10^-3 MOI, TZM-bl cells, 48 h; mean of at least 2 independent experiments, triplicates
Protocol: as §2

HIV-1 Ca10-3 (CRF01) = assay: microbe, parasite or virus in culture; type: cell-based; conditions: Human immunodeficiency virus 1, TZM-bl, 48 h, read-out: IC50 Ca10-3 (CRF01)
Protocol: (§3) The IC50 of the various mCD4-conjugates were measured in TZM-bl cells (NIH AIDS Reagent Program, Germantown, MD 20874, US). This cell line expresses high densities of CD4, CCR5 and CXCR4. It contains a luciferase reporter gene under control of HIV LTR, which will be transcribed and translated into luciferase protein, if the cells get infected with HIV and start producing Tat. Briefly, 50 μl of TZM-bl cells (1 × 10^5 cells/mL) supplemented with 30 μg/mL DEAE dextran were incubated with a 50 μl of a 10-fold serial dilution of the compounds under investigation in 96-well flat bottom plates, prior to inoculation with 50 μl of various viruses (see Tables & and 2; 50, 100 or 200 TCID50 was used depending on the virus). As a positive control, 50 μl of compound-free medium was used and as a negative control, 100 μl of medium was added to 100 μl of TZM-bl cells. All conditions were done in triplicates. The plates were incubated for 48 hours (37 °C, 5% CO2). Subsequently, 120 μL of supernatants were removed, 75 μl of the luciferase substrate Steadylite (Perkin Elmer, Life Sciences, Zaventem, Belgium) were added to the wells and the plates were incubated at room temperature on an orbital shaker for 10 minutes. Next, the luciferase activity was measured using a TriStar LB941 luminometer (Berthold Technologies GmbH & Co. KG., Bad Wildbad, Germany) and expressed in relative light units (RLU) as a percentage of positive control wells. IC50 were calculated in GraphPad Prism 5.03 using non-linear regression (GraphPad Software, San Diego, CA, USA).

HIV-1 MP568 (CRF02) = assay: microbe, parasite or virus in culture; type: cell-based; conditions: Human immunodeficiency virus 1, TZM-bl, 48 h, read-out: IC50 MP568 (CRF02)
Protocol: as §3

HIV-1 VI1888 (CRF01) = assay: microbe, parasite or virus in culture; type: cell-based; conditions: Human immunodeficiency virus 1, TZM-bl, 48 h, read-out: IC50 VI1888 (CRF01)
Protocol: as §3

HIV-1 VI824 = assay: microbe, parasite or virus in culture; type: cell-based; conditions: Human immunodeficiency virus 1, TZM-bl, 48 h, read-out: IC50 VI824
Protocol: as §3

HIV-1 p246F10 = assay: microbe, parasite or virus in culture; type: cell-based; conditions: Human immunodeficiency virus 1, TZM-bl, 48 h, read-out: IC50 P246F10
Protocol: as §3

HIV-1 pREJO.c/2864 cl2 = assay: microbe, parasite or virus in culture; type: cell-based; conditions: Human immunodeficiency virus 1, TZM-bl, 48 h, read-out: IC50 pREJO.c/2864 cl2
Protocol: as §3

HIV-1 pTHRO.c/2626 = assay: microbe, parasite or virus in culture; type: cell-based; conditions: Human immunodeficiency virus 1, TZM-bl, 48 h, read-out: IC50 pTHRO.c/2626
Protocol: as §3

HIV-1 pWITO.c/2474 = assay: microbe, parasite or virus in culture; type: cell-based; conditions: Human immunodeficiency virus 1, TZM-bl, 48 h, read-out: IC50 pWITO.c/2474
Protocol: as §3

HIV-1 pZM247Fv2 = assay: microbe, parasite or virus in culture; type: cell-based; conditions: Human immunodeficiency virus 1, TZM-bl, 48 h, read-out: IC50 pZM247Fv2
Protocol: as §3

HIV-1 VI829 = assay: TZM-bl antiviral assay, VI829; type: cell-based; conditions: Human immunodeficiency virus 1; Table 2; C-R5; 10^-3 MOI, TZM-bl cells, 48 h; mean of at least 2 independent experiments, triplicates
Protocol: as §2

TZM-bl cells = assay: WST-1 cytotoxicity assay; type: cell-based; conditions: Table 2, 50% cytotoxic concentration, WST-1, 48 h
Protocol: The water soluble tetrazolium-1 (WST-1) cell proliferation assay is based on the cleavage of the tetrazolium salt WST-1 to a formazan dye by a complex cellular mechanism. Because this bioreduction is dependent on the glycolytic production of NAD(P)H in viable cells, the amount of formazan dye formed is correlates directly to the number of viable cells in a culture. Quantification is done by measuring absorbance at 450 nm in a multiwell plate reader. TZMbl cells (10^4 cells/well) were plated in a 96-well plate and a serial dilution of compound was added. 48 h later, cell proliferation reagent was added and cell viability was measured compared to untreated control cultures. Cell viability was plotted against the compound concentration and non-linear regression analysis was performed to calculate the 50% cytotoxic concentration (CC50).

[3] = test system: HIV strains from different subtypes; assay: TZM-bl antiviral assay, whole panel of strains; type: cell-based, HIV-1; conditions: Human immunodeficiency virus 1, TZM-bl, read-out: active concentration across the panel
Protocol: as §2

HIV-1 = conditions: vaginal gel formulation (Tenofovir) or vaginal ring (Dapivirin); cited from earlier work
Protocol: Microbicides offer distinct advantages as their use should reduce side effects associated with systemic treatment and they could prevent the establishment of viral founder populations. Up to now several molecules targeting the attachment and entry of HIV were tested in clinical trials, including surfactants, such as nonoxynol–9 and C31G that disrupt the viral lipid envelope and non-specific polyanions, such as carrageenan, cellulose sulfate, as well as a sulfonated naphthalene derivative (PRO2000), presumably mimicking heparan sulfate (HS) and blocking virus-cell interactions. ...

[4] = HEC gel formulated, applied at 0.5 to 2 mM

## COc1ccnc2[nH]cc(C(=O)C(=O)N3CCN(C(=O)c4ccccc4)C[C@H]3C)c12 [BMS-378806]
SHIV162P3 [1]
  IC50: 5.5 nM
SHIV; administered at 5.5 mM
  protection: 75%

## Cc1cc(C)c(Nc2ccnc(Nc3ccc(C#N)cc3)n2)c(C)c1 [TMC120 Dapivirine, Dapivirine]
HIV-1 VI820
  IC50: 2 nM
HIV-1 Bal
  IC50: 1.7 nM
HIV-1 IIIB
  IC50: 0.84 nM
HIV-1 MN
  IC50: 1.5 nM
HIV-1 SF162
  IC50: 1.3 nM
SHIV162P3 [2]
  IC50: > 1000 nM
HIV-1 Ca10-3 (CRF01)
  IC50: 1.2 nM
HIV-1 MP568 (CRF02)
  IC50: 1.1 nM
HIV-1 VI1888 (CRF01)
  IC50: 2.1 nM
HIV-1 VI824
  IC50: 1.2 nM
HIV-1 p246F10
  IC50: 1.4 nM
HIV-1 pREJO.c/2864 cl2
  IC50: 1.6 nM
HIV-1 pTHRO.c/2626
  IC50: 1.9 nM
HIV-1 pWITO.c/2474
  IC50: 1.1 nM
HIV-1 pZM247Fv2
  IC50: 2.3 nM
HIV-1 VI829
  IC50: 1.3 nM
TZM-bl cells
  CC50: 2524 nM
[3]
  IC50: 1 to 2 nM
HIV-1
  reduction in HIV-1 acquisition: up to 40%

## C[C@H](Cn1cnc2c(N)ncnc21)OCP(=O)(O)O [Tenofovir]
HIV-1
  reduction in HIV-1 acquisition: up to 40%

## maraviroc
SHIV; 500 μM intravaginally
  protection: 50%
SHIV; 6 mM intravaginally
  macaques remaining uninfected: 6 of 7

B1: cyanovirin: HEC gel formulated cyanovirin (protein, UniProt P81180 1-101, looked up)
Cyanovirin-N: LGKFSQTCYNSAIQGSVLTSTCERTNGGYNTSSIDLNSVIENVDGSLKWQPSNFIETCRNTQLAGSSELAAECKTRAQQFVSTKINLDDHIANIDGTLKYE
modifications: HEC gel formulation
SHIV; [4]
  animals protected: 5 out of 6
  protection: 83%
